# Read-outs that look alike come from different tables or passages of the source. Where a SMILES comes first, the peptide text is derived from it. Where no end group is shown, it is not given here. [ ]: non-standard residue; d: D form. Aib = CC(C)(N)C(=O)O
# How the values were obtained:
# [1] = tested on: Mouse monocyte/macrophage cell line, RAW 264.7; experiment: Cholesterol efflux assay (3H-cholesterol, macrophage cell line); assay type: cell-based; conditions: RAW 264.7, 4 hrs incubation, 0.1% human serum albumin; for 4 h Cholesterol Efflux Emax: ABCA1-mediated efflux; for EC50: read-out: 4 h Cholesterol Efflux EC50, ABCA1-mediated efflux (CPT-cAMP induced minus non-induced)
# human GLP-1 receptor = human GLP-1 receptor (Homo sapiens, UniProt P43220); experiment: Functional GLP-1 receptor assay, in vitro potency (CRE luciferase; whole cells); assay type: cell-based
# [2] = GLP1R CRE luc 1% HSA EC50 Mean Value, BHK cells expressing human GLP-1 receptor, 1% HSA
# [3] = BHK cells expressing human GLP-1 receptor, 0% HSA, read-out: GLP1R CRE luc 0% HSA EC50 Mean Value
# human GLP-1 receptor, sequence (P43220 24-463): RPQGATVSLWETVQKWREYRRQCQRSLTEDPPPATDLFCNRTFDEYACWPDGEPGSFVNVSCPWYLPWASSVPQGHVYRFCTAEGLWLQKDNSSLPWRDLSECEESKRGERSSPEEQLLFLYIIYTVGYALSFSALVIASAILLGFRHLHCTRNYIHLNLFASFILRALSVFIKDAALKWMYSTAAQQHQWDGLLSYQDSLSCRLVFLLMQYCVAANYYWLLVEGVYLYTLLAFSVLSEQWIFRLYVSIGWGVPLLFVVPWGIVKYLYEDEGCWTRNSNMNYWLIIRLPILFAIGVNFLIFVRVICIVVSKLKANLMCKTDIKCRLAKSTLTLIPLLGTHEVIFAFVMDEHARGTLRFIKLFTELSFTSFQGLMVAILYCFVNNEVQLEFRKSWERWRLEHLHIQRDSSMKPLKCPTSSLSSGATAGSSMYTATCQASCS
EC50 (human GLP-1 receptor; [2]) [nM],EC50 (human GLP-1 receptor; [3]) [nM],Molecule,4 h Cholesterol Efflux Emax [1] [%],EC50 [1] [nM],EC50 (human GLP-1 receptor; GLP1R CRE luc 0% HSA EC50 Mean Value) [nM]
–,–,"CC[C@H](C)[C@H](NC(=O)[C@H](Cc1ccccc1)NC(=O)[C@H](CCC(=O)O)NC(=O)[C@H](CCCCN)NC(=O)[C@@H](NC(=O)[C@H](C)NC(=O)[C@H](CCC(=O)O)NC(=O)CNC(=O)[C@H](CCC(=O)O)NC(=O)[C@H](CC(C)C)NC(=O)[C@H](Cc1ccc(O)cc1)NC(=O)[C@H](CO)NC(=O)[C@H](CO)NC(=O)[C@@H](NC(=O)[C@H](CC(=O)O)NC(=O)[C@H](CO)NC(=O)[C@@H](NC(=O)[C@H](Cc1ccccc1)NC(=O)[C@@H](NC(=O)CNC(=O)[C@H](CCC(=O)O)NC(=O)C(C)(C)NC(=O)[C@@H](N)Cc1c[nH]cn1)[C@@H](C)O)[C@@H](C)O)C(C)C)C(C)C)C(=O)N[C@@H](C)C(=O)N[C@@H](Cc1c[nH]c2ccccc12)C(=O)N[C@@H](CC(C)C)C(=O)N[C@H](C(=O)N[C@@H](CCC(=O)O)C(=O)N[C@@H](CCCCN)C(=O)N[C@H](C(=O)N[C@@H](CCCCN)C(=O)N[C@@H](CCC(=O)O)C(=O)N[C@H](C(=O)N[C@@H](CC(C)C)C(N)=O)C(C)C)C(C)C)C(C)C [Compound 120, [Aib8,Glu23,Val25,Glu34,Lys35,Val36,Lys37]-GLP-1-(7-37)-peptidyl-Glu-Val-Leu amide] (H-H[Aib]EGTFTSDVSSYLEGEAVKEFIAWLVEKVKEVL-NH2; N-terminus assumed)",142,380,0.198
0.372,–,"CC[C@H](C)[C@H](NC(=O)[C@H](Cc1ccccc1)NC(=O)[C@H](CCC(=O)O)NC(=O)[C@H](CCCCN)NC(=O)[C@@H](NC(=O)[C@H](C)NC(=O)[C@H](CCC(=O)O)NC(=O)CNC(=O)[C@H](CCC(=O)O)NC(=O)[C@H](CC(C)C)NC(=O)[C@H](Cc1ccc(O)cc1)NC(=O)[C@H](CO)NC(=O)[C@H](CO)NC(=O)[C@@H](NC(=O)[C@H](CC(=O)O)NC(=O)[C@H](CO)NC(=O)[C@@H](NC(=O)[C@H](Cc1ccccc1)NC(=O)[C@@H](NC(=O)CNC(=O)[C@H](CCC(=O)O)NC(=O)C(C)(C)NC(=O)[C@@H](N)Cc1c[nH]cn1)[C@@H](C)O)[C@@H](C)O)C(C)C)C(C)C)C(=O)N[C@@H](C)C(=O)N[C@@H](Cc1c[nH]c2ccccc12)C(=O)N[C@@H](CC(C)C)C(=O)N[C@H](C(=O)N[C@@H](CCC(=O)O)C(=O)N[C@@H](CCCCN)C(=O)N[C@H](C(=O)N[C@@H](CCCCN)C(=O)N[C@@H](CCC(=O)O)C(=O)N[C@@H](Cc1ccccc1)C(=O)N[C@@H](Cc1ccccc1)C(N)=O)C(C)C)C(C)C [Compound 121, [Aib8,Glu23,Val25,Glu34,Lys35,Val36,Lys37]-GLP-1-(7-37)-peptidyl-Glu-Phe-Phe amide] (H-H[Aib]EGTFTSDVSSYLEGEAVKEFIAWLVEKVKEFF-NH2)",109,–,–
0.012,0.029,"CC[C@H](C)[C@H](NC(=O)[C@H](Cc1ccccc1)NC(=O)[C@H](CCC(=O)O)NC(=O)[C@H](CCCCN)NC(=O)[C@@H](NC(=O)[C@H](C)NC(=O)[C@H](CCC(=O)O)NC(=O)[C@H](CCC(=O)O)NC(=O)[C@H](CCC(=O)O)NC(=O)[C@H](CC(C)C)NC(=O)[C@H](Cc1ccc(O)cc1)NC(=O)[C@H](CO)NC(=O)[C@H](CO)NC(=O)[C@@H](NC(=O)[C@H](CC(=O)O)NC(=O)[C@H](CO)NC(=O)[C@@H](NC(=O)[C@H](Cc1ccccc1)NC(=O)[C@@H](NC(=O)CNC(=O)[C@H](CCC(=O)O)NC(=O)C(C)(C)NC(=O)[C@@H](N)Cc1c[nH]cn1)[C@@H](C)O)[C@@H](C)O)C(C)C)C(C)C)C(=O)N[C@@H](C)C(=O)N[C@@H](Cc1c[nH]c2ccccc12)C(=O)N[C@@H](CC(C)C)C(=O)N[C@H](C(=O)N[C@@H](CCC(=O)O)C(=O)N[C@@H](CCCCN)C(=O)N[C@H](C(=O)N[C@@H](CCCCN)C(=O)N[C@@H](CCC(=O)O)C(=O)N[C@@H](Cc1ccccc1)C(N)=O)C(C)C)C(C)C [Compound 134, [Aib8,Glu22,Glu23,Val25,Glu34,Lys35,Val36,Lys37]-GLP-1-(7-37)-peptidyl-Glu-Phe amide] (H-H[Aib]EGTFTSDVSSYLEEEAVKEFIAWLVEKVKEF-NH2)",134,–,–
0.034,0.116,"CC[C@H](C)[C@H](NC(=O)[C@H](Cc1ccccc1)NC(=O)[C@H](CCC(=O)O)NC(=O)[C@H](CCCCN)NC(=O)[C@@H](NC(=O)[C@H](C)NC(=O)[C@H](CCC(=O)O)NC(=O)[C@H](CCC(=O)O)NC(=O)[C@H](CCC(=O)O)NC(=O)[C@H](CC(C)C)NC(=O)[C@H](Cc1ccc(O)cc1)NC(=O)[C@H](CO)NC(=O)[C@H](CO)NC(=O)[C@@H](NC(=O)[C@H](CC(=O)O)NC(=O)[C@H](CO)NC(=O)[C@@H](NC(=O)[C@H](Cc1ccccc1)NC(=O)[C@@H](NC(=O)CNC(=O)[C@H](CCC(=O)O)NC(=O)C(C)(C)NC(=O)[C@@H](N)Cc1c[nH]cn1)[C@@H](C)O)[C@@H](C)O)C(C)C)C(C)C)C(=O)N[C@@H](C)C(=O)N[C@@H](Cc1c[nH]c2ccccc12)C(=O)N[C@@H](CC(C)C)C(=O)N[C@H](C(=O)N[C@@H](CCC(=O)O)C(=O)N[C@@H](CCCCN)C(=O)N[C@H](C(=O)N[C@@H](CCCCN)C(=O)N[C@@H](CCC(=O)O)C(=O)N[C@@H](Cc1ccccc1)C(=O)N[C@@H](CC(C)C)C(N)=O)C(C)C)C(C)C [Compound 137, [Aib8,Glu22,Glu23,Val25,Glu34,Lys35,Val36,Lys37]-GLP-1-(7-37)-peptidyl-Glu-Phe-Leu amide] (H-H[Aib]EGTFTSDVSSYLEEEAVKEFIAWLVEKVKEFL-NH2)",108,–,–
0.031,–,"H-HAEGTFTSDVSSYLEGEAVKEFIAWLVEKVKEFLEK-OH [Compound 123, [Glu23,Val25,Glu34,Lys35,Val36,Lys37]-GLP-1-(7-37)-peptidyl-Glu-Phe-Leu-Glu-Lys]",111,–,–
0.017,0.041,H-HAEGTFTSDVSSYLEGEAVREFIAWLVERVREFLEK-OH [Compound 138],96,–,–
0.014,0.039,H-HAEGTFTSDVSSYLEGEAVREFIAWLVHRVREFLEK-OH [Compound 139],104,–,–
0.013,0.041,H-HAEGTFTSDVSSYLEGQAAKEFIAWLVEKVGEFLEK-OH [Compound 128],112,–,–
0.012,0.045,"H-HAEGTFTSDVSSYLEGQAAKEFIAWLVEKVKEFLDK-OH [Compound 129, [Glu34,Lys35,Val36,Lys37]-GLP-1-(7-37)-peptidyl-Glu-Phe-Leu-Asp-Lys]",111,–,–
0.011,0.03,"H-HAEGTFTSDVSSYLEGQAAKEFIAWLVEKVKEFLEK-OH [Compound 124, [Glu34,Lys35,Val36,Lys37]-GLP-1-(7-37)-peptidyl-Glu-Phe-Leu-Glu-Lys]",146,–,–
0.011,0.034,"H-HAEGTFTSDVSSYLEGQAAKEFIAWLVEKVKEFLER-OH [Compound 130, [Glu34,Lys35,Val36,Lys37]-GLP-1-(7-37)-peptidyl-Glu-Phe-Leu-Glu-Arg]",125,–,–
0.076,–,"H-HGEGTFTSDVSSYLEEEAVKEFIAWLVEKVKEKL-NH2 [Compound 111, [Gly8,Glu22,Glu23,Val25,Glu34,Lys35,Val36,Lys37]-GLP-1-(7-37)-peptidyl-Glu-Lys-Leu amide]",117,–,–
0.02,0.031,"HAEGTFTSDLSKQMEEEAVREFIEWLKNKVLEFL-NH2 [Compound 69, [Ala2,Glu21,Lys29,Val30,Leu31,Glu32,Phe33,Leu34]-Exendin-4-(1-34)-peptide amide]",–,410,–

# Reference: US20150344540A1, “NOVEL GLP-1 RECEPTOR AGONISTS WITH CHOLESTEROL EFFLUX ACTIVITY” (NOVO NORDISK A/S, priority 2012, published 2015)
